Measured values reported in PubChem BioAssay (NCI).
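Five concentrations, 48 hours, 96-well plates. GI50: concentration for 50% inhibition of growth. TGI denotes the concentration required for complete inhibition of growth.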

Key:
Test in all cases: NCI anticancer screen, dose series, 48 h
786-0 renal = system: 786-0 renal
K-562 leukemia = system: K-562 leukemia
M19-MEL melanoma = system: M19-MEL melanoma
MDA-MB-435 = system: MDA-MB-435
NCI/ADR-RES ovarian = system: NCI/ADR-RES ovarian
OVCAR-4 ovarian = system: OVCAR-4 ovarian
SF-295 CNS = system: SF-295 CNS
SK-OV-3 ovarian = system: SK-OV-3 ovarian
TK-10 renal = system: TK-10 renal
LXFL 529 NSCLC = system: LXFL 529 NSCLC

Structure (SMILES)	TGI (786-0 renal) [µM]	TGI (K-562 leukemia) [µM]	TGI (M19-MEL melanoma) [µM]	TGI (MDA-MB-435) [µM]	TGI (NCI/ADR-RES ovarian) [µM]	TGI (OVCAR-4 ovarian) [µM]	TGI (SF-295 CNS) [µM]	TGI (SK-OV-3 ovarian) [µM]	TGI (TK-10 renal) [µM]	GI50 (786-0 renal) [µM]	GI50 (K-562 leukemia) [µM]	TGI (LXFL 529 NSCLC) [µM]	GI50 (SF-295 CNS) [µM]	GI50 (TK-10 renal) [µM]	GI50 (LXFL 529 NSCLC) [µM]	GI50 (M19-MEL melanoma) [µM]	GI50 (OVCAR-4 ovarian) [µM]	GI50 (SK-OV-3 ovarian) [µM]	GI50 (MDA-MB-435) [µM]	GI50 (NCI/ADR-RES ovarian) [µM]
CC(=O)OC1C(O)C(C)OC(OC2C(OC(=O)C3CCC4C(C3)OC3(CC(OC(=O)/C=C/c5ccccc5)C(C)CO3)C43CO3)OC(C)C(O)C2OC(C)=O)C1O (stereo not given)	0.132	0.241	0.0665	0.00649	> 2.5	0.051	0.145	0.0928	0.225											
CCCCCCCCCCCCC(O)C1CCC(C(O)CCCCC(O)CCCCCC2CC(CC(C)=O)C(=O)O2)O1 (stereo not given)	19.7	7.7	12.5		2.3	19.1	13.5	26	14.1	3.91	1.35	16.3	0.508	2.4						
CCOC(=O)CCc1c(C)c2c(OC)cc(OC)cc2oc1=O	> 100		> 100			> 100	> 100		> 100			> 100								
CCN(N=O)C1C2(CCCC2)NC(=O)C12CCCC2 (stereo not given)	> 100	> 100	> 100			> 100	> 100	> 100	> 100			> 100								
O=C(O)C1=Cc2cccc3cccc(c23)C1=O	> 100	> 100	> 100			> 100	> 100	> 100	> 100			> 100								
CC(=O)OC(C(=O)[O][Ge]([CH3])([CH3])[CH3])c1ccccc1 (stereo not given)	> 100	> 100	> 100			> 100	> 100	> 100	> 100	> 100	> 100	> 100	> 100	> 100	> 100	> 100	> 100	> 100		
CC(=O)Oc1ccc2c(=O)c(C(C)=O)coc2c1	> 100	> 100	> 100			> 100	> 100		> 100			> 100								
Cc1[nH]c(=O)n2c(C)nnc2c1C(=O)O	> 100	> 100	> 100			> 100	> 100	> 100	> 100			> 100								
COC(=O)c1cc(O)ccc1O	> 100	> 100	> 100			> 100	> 100	> 100	> 100			> 100								
CC[O-].CC[O-].O=C1C=C([O-])C(=O)c2ccccc21.O=C1C=C([O-])C(=O)c2ccccc21.[Ti+4]	> 100	> 100	3.81			> 100	> 100	> 100	> 100	> 100	69.6	> 100		> 67.7	83.3	1.61	> 100	> 100		
CC(C)(C)N1CC1CNC(=O)C(=O)NCC1CN1C(C)(C)C (stereo not given)	4.31	15	2.62	> 100	> 54	60.2	14.3	13.4	> 100											
CC1(C)N=C(N)N=C(N)N1c1ccc(OCC(=O)Nc2ccc(S(=O)(=O)F)cc2Cl)c(Cl)c1	> 100	> 100		> 100	> 100	> 100	> 100	> 100	> 100	3.13	0.594		5.23	15.4			> 100	> 100	3.36	61.1
C[n+]1cccc(NC(=O)c2ccc3ccc4ccc(C(=O)Nc5ccc[n+](C)c5)nc4c3n2)c1	> 100	> 100		> 100	> 100	> 100	25.3	12.5	> 100	8.99	2.4		2.59	53.7			7.37	1.97	6.2	> 100
CCOC(=O)c1c(C)n([O-])c2cc(F)c(F)cc2[n+]1=O	19.8	> 20.4		3.11	1.98	3.92	3.41	3.48	32.5	6.73	0.697		1.74	17.4			1.72	1.93	1.56	0.432
